Source: EP4603105A1, “PHARMACEUTICAL COMPOSITION CONTAINING CYCLIC COMPOUND HAVING SELECTIVE KRAS INHIBITORY EFFECT AGAINST HRAS AND NRAS” (CHUGAI SEIYAKU KABUSHIKI KAISHA, priority 2022, dated 2024)
*1 amine or outer side, *2 acyl side, *3 side chain or, on linkers, in order; H or OH if unused. Where a SMILES comes first, the peptide text is derived from it. Bridges are numbered along the chain shown (N, C = ends). [ ]: non-standard residue; d: D form. The star is where a group is joined. hPhe(3-Cl-4-CF3) = N[C@@H](CCc1ccc(C(F)(F)F)c(Cl)c1)C(=O)O; NPrPhe(4-CF3) = CCCN[C@@H](Cc1ccc(C(F)(F)F)cc1)C(=O)O; Pro(4-spirocPr) = O=C(O)[C@@H]1CC2(CC2)CN1; Abu(4,4,4-F3) = N[C@@H](CC(F)(F)F)C(=O)O; Morpholine(3S-CO) = O=C(O)[C@@H]1COCCN1; Pip(4,4-F2) = O=C(O)[C@@H]1CC(F)(F)CCN1; NMeGly(cPent) = CN[C@H](C(=O)O)C1CCCC1; Hyp = O=C(O)[C@@H]1C[C@@H](O)CN1; NMeD = CN[C@@H](CC(=O)O)C(=O)O; NMeL = CN[C@@H](CC(C)C)C(=O)O; X10 = N#CCN(CC(=O)[*:2])[*:1]; hPip = O=C(O)[C@@H]1CCCCCN1; Pip = O=C(O)[C@@H]1CCCCN1; Morpholide = C1CN(*)CCO1; NMeA = CN[C@@H](C)C(=O)O; Ac5c = NC1(C(=O)O)CCCC1; Aze = O=C(O)[C@@H]1CCN1; NPrGly = CCCNCC(=O)O; NEtG = CCNCC(=O)O; Sar = CNCC(=O)O

What was measured:
HRAS wild-type protein = HRAS wild-type protein (Homo sapiens, UniProt P01112); assay: Binding to HRAS by surface plasmon resonance (SPR), KD and KD ratio to KRAS; conditions: ratio of KD for HRAS wild-type protein to KD for KRAS
Chain of HRAS wild-type protein (P01112 whole entry): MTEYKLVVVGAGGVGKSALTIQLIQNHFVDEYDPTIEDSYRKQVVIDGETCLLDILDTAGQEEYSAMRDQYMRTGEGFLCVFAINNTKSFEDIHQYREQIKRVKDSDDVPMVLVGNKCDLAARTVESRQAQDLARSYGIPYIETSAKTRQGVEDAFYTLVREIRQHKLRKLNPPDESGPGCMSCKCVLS
In short: (§1)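 Running buffer contained 10 µM GDP and 10 mM MgCl2 to keep RAS in the GDP state, with 4% DMSO at pH 7.4. Compounds were flowed at 100 µL/min in 75 s steps of rising concentration over captured biotin-Avi RAS at 30°C. Sensorgrams were fitted 1:1 for KD.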

[1] = biological target: GDP-bound NRAS wild-type protein (Homo sapiens, UniProt P01111); assay: Binding to NRAS by surface plasmon resonance (SPR), KD and KD ratio to KRAS; conditions: ratio of KD for GDP-bound NRAS wild-type protein to KD for KRAS
Chain of GDP-bound NRAS wild-type protein (P01111 whole entry): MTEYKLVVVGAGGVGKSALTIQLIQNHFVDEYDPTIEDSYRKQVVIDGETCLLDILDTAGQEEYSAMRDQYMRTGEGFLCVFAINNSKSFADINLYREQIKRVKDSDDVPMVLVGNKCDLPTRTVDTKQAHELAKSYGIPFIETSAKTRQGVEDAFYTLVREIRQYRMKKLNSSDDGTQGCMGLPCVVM
In short: as §1

[2] = system: human lung cancer strain NCI-H441; assay type: cell-based
In short: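 Step one: dispense the test compound in serial DMSO dilutions. Step three: add the reagent and measure […].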

SMILES: CCCN1CC(=O)N2CC[C@H]2C(=O)N(CCC)[C@@H](Cc2ccc(C(F)(F)F)cc2)C(=O)N(C)CC(=O)N[C@@H](CCc2ccc(C(F)(F)F)c(Cl)c2)C(=O)N2CCC[C@H]2C(=O)NC2(CCCC2)C(=O)N(C)[C@@H](C2CCCC2)C(=O)N(C)[C@H](C(=O)N2CCOCC2)CC(=O)N(C)[C@@H](CC(C)C)C(=O)N[C@@H]([C@@H](C)CC)C1=O [PP0274] ([NMeL]I[NPrGly][Aze][NPrPhe(4-CF3)][Sar][hPhe(3-Cl-4-CF3)]P[Ac5c][NMeGly(cPent)][NMeD]-Morpholide; lactam N-11)
- HRAS /KRAS (HRAS wild-type protein): B (a compound having 3 or more and less than 10 is denoted as B)
- NRAS /KRAS [1]: C (A compound having a KD ratio of 0.1 or more and less than 3 is denoted as C)
- IC50 [2]: 0.0091 µM

SMILES: CCCN1C(=O)[C@@H]2CCN2C(=O)CN(CC#N)C(=O)[C@H]([C@@H](C)CC)NC(=O)[C@H](CC(C)C)N(C)C(=O)C[C@@H](C(=O)N2CCOCC2)N(C)C(=O)[C@H](C2CCCC2)N(C)C(=O)C2(CCCC2)NC(=O)[C@@H]2CCCN2C(=O)[C@H](CCc2ccc(C(F)(F)F)c(Cl)c2)NC(=O)CN(C)C(=O)[C@@H]1Cc1ccc(C(F)(F)F)cc1 [PP0275] ([NMeL]I[X10][Aze][NPrPhe(4-CF3)][Sar][hPhe(3-Cl-4-CF3)]P[Ac5c][NMeGly(cPent)][NMeD]-Morpholide; lactam N-11)
- HRAS /KRAS (HRAS wild-type protein): C (A compound having a KD ratio of 0.1 or more and less than 3 is denoted as C)
- NRAS /KRAS [1]: C (A compound having a KD ratio of 0.1 or more and less than 3 is denoted as C)
- IC50 [2]: 0.0093 µM

SMILES: CCCN1C(=O)[C@@H]2CCN2C(=O)[C@H](C)N(C)C(=O)[C@H]([C@@H](C)CC)NC(=O)[C@H](CC(C)C)N(C)C(=O)C[C@@H](C(=O)N2CCOCC2)N(C)C(=O)[C@H](C2CCCC2)N(C)C(=O)C2(CCCC2)NC(=O)[C@@H]2CCN2C(=O)[C@H](CCc2ccc(C(F)(F)F)c(Cl)c2)NC(=O)CN(C)C(=O)[C@@H]1Cc1ccc(C(F)(F)F)cc1 [PP0281] ([NMeL]I[NMeA][Aze][NPrPhe(4-CF3)][Sar][hPhe(3-Cl-4-CF3)][Aze][Ac5c][NMeGly(cPent)][NMeD]-Morpholide; lactam N-11)
- HRAS /KRAS (HRAS wild-type protein): C (A compound having a KD ratio of 0.1 or more and less than 3 is denoted as C)
- NRAS /KRAS [1]: C (A compound having a KD ratio of 0.1 or more and less than 3 is denoted as C)
- IC50 [2]: 0.0078 µM

SMILES: CCCN1C(=O)[C@@H]2CCN2C(=O)[C@H](C)N(C)C(=O)[C@H]([C@@H](C)CC)NC(=O)[C@H](CC(C)C)N(C)C(=O)C[C@@H](C(=O)N2CCOCC2)N(C)C(=O)[C@H](C2CCCC2)N(C)C(=O)C2(CCCC2)NC(=O)[C@@H]2CC3(CC3)CN2C(=O)[C@H](CCc2ccc(C(F)(F)F)c(Cl)c2)NC(=O)CN(C)C(=O)[C@@H]1Cc1ccc(C(F)(F)F)cc1 [PP0282] ([NMeL]I[NMeA][Aze][NPrPhe(4-CF3)][Sar][hPhe(3-Cl-4-CF3)][Pro(4-spirocPr)][Ac5c][NMeGly(cPent)][NMeD]-Morpholide; lactam N-11)
- HRAS /KRAS (HRAS wild-type protein): C (A compound having a KD ratio of 0.1 or more and less than 3 is denoted as C)
- NRAS /KRAS [1]: C (A compound having a KD ratio of 0.1 or more and less than 3 is denoted as C)
- IC50 [2]: 0.0039 µM

SMILES: CCCN1C(=O)[C@@H]2CCN2C(=O)[C@H](C)N(C)C(=O)[C@H]([C@@H](C)CC)NC(=O)[C@H](CC(C)C)N(C)C(=O)C[C@@H](C(=O)N2CCOCC2)N(C)C(=O)[C@H](C2CCCC2)N(C)C(=O)C2(CCCC2)NC(=O)[C@@H]2C[C@@H](OC)CN2C(=O)[C@H](CCc2ccc(C(F)(F)F)c(Cl)c2)NC(=O)CN(C)C(=O)[C@@H]1Cc1ccc(C(F)(F)F)cc1 [PP0283] ([NMeL]I[NMeA][Aze][NPrPhe(4-CF3)][Sar][hPhe(3-Cl-4-CF3)][Hyp](Me)[Ac5c][NMeGly(cPent)][NMeD]-Morpholide; lactam N-11)
- HRAS /KRAS (HRAS wild-type protein): C (A compound having a KD ratio of 0.1 or more and less than 3 is denoted as C)
- NRAS /KRAS [1]: C (A compound having a KD ratio of 0.1 or more and less than 3 is denoted as C)
- IC50 [2]: 0.0019 µM

SMILES: CCCN1C(=O)[C@@H]2CCN2C(=O)[C@H](C)N(C)C(=O)[C@H]([C@@H](C)CC)NC(=O)[C@H](CC(C)C)N(C)C(=O)C[C@@H](C(=O)N2CCOCC2)N(C)C(=O)[C@H](C2CCCC2)N(C)C(=O)C2(CCCC2)NC(=O)[C@@H]2CCCCN2C(=O)[C@H](CCc2ccc(C(F)(F)F)c(Cl)c2)NC(=O)CN(C)C(=O)[C@@H]1Cc1ccc(C(F)(F)F)cc1 [PP0284] ([NMeL]I[NMeA][Aze][NPrPhe(4-CF3)][Sar][hPhe(3-Cl-4-CF3)][Pip][Ac5c][NMeGly(cPent)][NMeD]-Morpholide; lactam N-11)
- HRAS /KRAS (HRAS wild-type protein): B (a compound having 3 or more and less than 10 is denoted as B)
- NRAS /KRAS [1]: C (A compound having a KD ratio of 0.1 or more and less than 3 is denoted as C)
- IC50 [2]: 0.029 µM

SMILES: CCCN1C(=O)[C@@H]2CCN2C(=O)[C@H](C)N(C)C(=O)[C@H]([C@@H](C)CC)NC(=O)[C@H](CC(C)C)N(C)C(=O)C[C@@H](C(=O)N2CCOCC2)N(C)C(=O)[C@H](C2CCCC2)N(C)C(=O)C2(CCCC2)NC(=O)[C@@H]2CC(F)(F)CCN2C(=O)[C@H](CCc2ccc(C(F)(F)F)c(Cl)c2)NC(=O)CN(C)C(=O)[C@@H]1Cc1ccc(C(F)(F)F)cc1 [PP0285] ([NMeL]I[NMeA][Aze][NPrPhe(4-CF3)][Sar][hPhe(3-Cl-4-CF3)][Pip(4,4-F2)][Ac5c][NMeGly(cPent)][NMeD]-Morpholide; lactam N-11)
- HRAS /KRAS (HRAS wild-type protein): B (a compound having 3 or more and less than 10 is denoted as B)
- NRAS /KRAS [1]: C (A compound having a KD ratio of 0.1 or more and less than 3 is denoted as C)
- IC50 [2]: 0.0189 µM

SMILES: CCCN1C(=O)[C@@H]2CCN2C(=O)[C@H](C)N(C)C(=O)[C@H]([C@@H](C)CC)NC(=O)[C@H](CC(C)C)N(C)C(=O)C[C@@H](C(=O)N2CCOCC2)N(C)C(=O)[C@H](C2CCCC2)N(C)C(=O)C2(CCCC2)NC(=O)[C@@H]2COCCN2C(=O)[C@H](CCc2ccc(C(F)(F)F)c(Cl)c2)NC(=O)CN(C)C(=O)[C@@H]1Cc1ccc(C(F)(F)F)cc1 [PP0286] ([NMeL]I[NMeA][Aze][NPrPhe(4-CF3)][Sar][hPhe(3-Cl-4-CF3)][Morpholine(3S-CO)][Ac5c][NMeGly(cPent)][NMeD]-Morpholide; lactam N-11)
- HRAS /KRAS (HRAS wild-type protein): B (a compound having 3 or more and less than 10 is denoted as B)
- NRAS /KRAS [1]: C (A compound having a KD ratio of 0.1 or more and less than 3 is denoted as C)
- IC50 [2]: 0.035 µM

SMILES: CCCN1C(=O)[C@@H]2CCN2C(=O)[C@H](C)N(C)C(=O)[C@H]([C@@H](C)CC)NC(=O)[C@H](CC(C)C)N(C)C(=O)C[C@@H](C(=O)N2CCOCC2)N(C)C(=O)[C@H](C2CCCC2)N(C)C(=O)C2(CCCC2)NC(=O)CN(C)C(=O)[C@H](CCc2ccc(C(F)(F)F)c(Cl)c2)NC(=O)CN(C)C(=O)[C@@H]1Cc1ccc(C(F)(F)F)cc1 [PP0287] ([NMeL]I[NMeA][Aze][NPrPhe(4-CF3)][Sar][hPhe(3-Cl-4-CF3)][Sar][Ac5c][NMeGly(cPent)][NMeD]-Morpholide; lactam N-11)
- HRAS /KRAS (HRAS wild-type protein): C (A compound having a KD ratio of 0.1 or more and less than 3 is denoted as C)
- NRAS /KRAS [1]: C (A compound having a KD ratio of 0.1 or more and less than 3 is denoted as C)
- IC50 [2]: 0.0145 µM

SMILES: CCCN1CC(=O)NC2(CCCC2)C(=O)N(C)[C@@H](C2CCCC2)C(=O)N(C)[C@H](C(=O)N2CCOCC2)CC(=O)N(C)[C@@H](CC(C)C)C(=O)N[C@@H]([C@@H](C)CC)C(=O)N(C)[C@@H](C)C(=O)N2CC[C@H]2C(=O)N(CCC)[C@@H](Cc2ccc(C(F)(F)F)cc2)C(=O)N(C)CC(=O)N[C@@H](CCc2ccc(C(F)(F)F)c(Cl)c2)C1=O [PP0288] ([NMeL]I[NMeA][Aze][NPrPhe(4-CF3)][Sar][hPhe(3-Cl-4-CF3)][NPrGly][Ac5c][NMeGly(cPent)][NMeD]-Morpholide; lactam N-11)
- HRAS /KRAS (HRAS wild-type protein): B (a compound having 3 or more and less than 10 is denoted as B)
- NRAS /KRAS [1]: C (A compound having a KD ratio of 0.1 or more and less than 3 is denoted as C)
- IC50 [2]: 0.0143 µM

SMILES: CCCN1C(=O)CN(C)C(=O)CN(CC)C(=O)[C@H]([C@@H](C)CC)NC(=O)[C@@H]2CCCCCN2C(=O)C[C@@H](C(=O)N2CCOCC2)N(C)C(=O)[C@H](C2CCCC2)N(C)C(=O)C2(CCCC2)NC(=O)[C@@H]2CCCN2C(=O)[C@H](CCc2ccc(C(F)(F)F)c(Cl)c2)NC(=O)CN(C)C(=O)[C@@H]1Cc1ccc(C(F)(F)F)cc1 [PP0289] ([hPip]I[NEtG][Sar][NPrPhe(4-CF3)][Sar][hPhe(3-Cl-4-CF3)]P[Ac5c][NMeGly(cPent)][NMeD]-Morpholide; lactam N-11)
- HRAS /KRAS (HRAS wild-type protein): B (a compound having 3 or more and less than 10 is denoted as B)
- NRAS /KRAS [1]: B (a compound having 3 or more and less than 10 is denoted as B)
- IC50 [2]: 0.0764 µM

SMILES: CCCN1C(=O)CN(C)C(=O)CN(CC)C(=O)[C@H](CC(F)(F)F)NC(=O)[C@H](CC(C)C)N(C)C(=O)C[C@@H](C(=O)N2CCOCC2)N(C)C(=O)[C@H](C2CCCC2)N(C)C(=O)C2(CCCC2)NC(=O)[C@@H]2CCCN2C(=O)[C@H](CCc2ccc(C(F)(F)F)c(Cl)c2)NC(=O)CN(C)C(=O)[C@@H]1Cc1ccc(C(F)(F)F)cc1 [PP0291] ([NMeL][Abu(4,4,4-F3)][NEtG][Sar][NPrPhe(4-CF3)][Sar][hPhe(3-Cl-4-CF3)]P[Ac5c][NMeGly(cPent)][NMeD]-Morpholide; lactam N-11)
- HRAS /KRAS (HRAS wild-type protein): B (a compound having 3 or more and less than 10 is denoted as B)
- NRAS /KRAS [1]: B (a compound having 3 or more and less than 10 is denoted as B)
- IC50 [2]: 0.031 µM
